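Assay format: 96-well plates, 48-hour exposure. GI50 is the concentration that inhibits growth by half. TGI: concentration producing complete growth inhibition.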
Legend:
Assay in all cases: NCI tumour cell line growth inhibition, 48 h
DU-145 prostate = test system: DU-145 prostate
MOLT-4 leukemia = test system: MOLT-4 leukemia
OVCAR-5 ovarian = test system: OVCAR-5 ovarian
HS 578T breast = test system: HS 578T breast
SK-MEL-5 melanoma = test system: SK-MEL-5 melanoma
BT-549 breast = test system: BT-549 breast
HT29 colon = test system: HT29 colon
NCI/ADR-RES ovarian = test system: NCI/ADR-RES ovarian
HOP-92 NSCLC = test system: HOP-92 NSCLC
HCC-2998 colon = test system: HCC-2998 colon
SN12C renal = test system: SN12C renal
A498 renal = test system: A498 renal
SF-539 CNS = test system: SF-539 CNS
COLO 205 colon = test system: COLO 205 colon
OVCAR-8 ovarian = test system: OVCAR-8 ovarian
SR leukemia = test system: SR leukemia
NCI-H460 lung = test system: NCI-H460 lung
MDA-MB-231 breast = test system: MDA-MB-231 breast
ACHN renal = test system: ACHN renal
SK-MEL-28 melanoma = test system: SK-MEL-28 melanoma
MCF7 breast = test system: MCF7 breast
HCT-15 colon = test system: HCT-15 colon
MALME-3M melanoma = test system: MALME-3M melanoma
NCI-H23 lung = test system: NCI-H23 lung
HL-60(TB) leukemia = test system: HL-60(TB) leukemia
NCI-H226 lung = test system: NCI-H226 lung
SNB-75 CNS = test system: SNB-75 CNS
UACC-62 melanoma = test system: UACC-62 melanoma
SNB-19 CNS = test system: SNB-19 CNS
IGROV1 ovarian = test system: IGROV1 ovarian
KM12 colon = test system: KM12 colon
TK-10 renal = test system: TK-10 renal
CAKI-1 renal = test system: CAKI-1 renal
OVCAR-3 ovarian = test system: OVCAR-3 ovarian
UACC-257 melanoma = test system: UACC-257 melanoma
RXF 393 renal = test system: RXF 393 renal
SK-OV-3 ovarian = test system: SK-OV-3 ovarian
SF-268 CNS = test system: SF-268 CNS
A549 NSCLC = test system: A549 NSCLC
LOX IMVI melanoma = test system: LOX IMVI melanoma
T-47D breast = test system: T-47D breast
OVCAR-4 ovarian = test system: OVCAR-4 ovarian
MDA-MB-435 = test system: MDA-MB-435
EKVX NSCLC = test system: EKVX NSCLC
CCRF-CEM leukemia = test system: CCRF-CEM leukemia
SK-MEL-2 melanoma = test system: SK-MEL-2 melanoma
SW-620 colon = test system: SW-620 colon
UO-31 renal = test system: UO-31 renal
U251 CNS = test system: U251 CNS
K-562 leukemia = test system: K-562 leukemia

## COc1cc2c(cc1OCCCOc1ccc(-c3cc4ccccc4c4ccccc34)cc1)N=C[C@@H]1CCCN1C2=O
DU-145 prostate
  GI50: 0.385 µM
  TGI: 1.42 µM
MOLT-4 leukemia
  GI50: 0.186 µM
  TGI: 0.432 µM
OVCAR-5 ovarian
  GI50: 0.487 µM
  TGI: 0.995 µM
HS 578T breast
  GI50: 0.645 µM
  TGI: 3.11 µM
SK-MEL-5 melanoma
  GI50: 1.24 µM
  TGI: 2.49 µM
BT-549 breast
  GI50: 0.278 µM
  TGI: 2.05 µM
HT29 colon
  GI50: 0.899 µM
  TGI: 2.11 µM
NCI/ADR-RES ovarian
  GI50: 0.716 µM
  TGI: 1.98 µM
HOP-92 NSCLC
  GI50: 0.334 µM
  TGI: 1.53 µM
HCC-2998 colon
  GI50: 1.21 µM
  TGI: 2.45 µM
SN12C renal
  GI50: 0.518 µM
  TGI: 1.84 µM
A498 renal
  GI50: 0.894 µM
  TGI: 2.16 µM
SF-539 CNS
  GI50: 1.58 µM
  TGI: 2.92 µM
COLO 205 colon
  GI50: 1.19 µM
  TGI: 2.44 µM
OVCAR-8 ovarian
  GI50: 0.425 µM
  TGI: 1.98 µM
SR leukemia
  GI50: 0.222 µM
  TGI: 0.717 µM
NCI-H460 lung
  GI50: 1.04 µM
  TGI: 2.21 µM
MDA-MB-231 breast
  GI50: 0.291 µM
  TGI: 1.27 µM
ACHN renal
  GI50: 1.07 µM
  TGI: 2.3 µM
SK-MEL-28 melanoma
  GI50: 0.555 µM
  TGI: 1.38 µM
MCF7 breast
  GI50: 0.172 µM
  TGI: 0.971 µM
HCT-15 colon
  GI50: 0.896 µM
  TGI: 2.26 µM
MALME-3M melanoma
  GI50: 1.4 µM
  TGI: 2.74 µM
NCI-H23 lung
  GI50: 1.41 µM
  TGI: 2.74 µM
HL-60(TB) leukemia
  GI50: 0.171 µM
  TGI: 0.393 µM
NCI-H226 lung
  GI50: 1.28 µM
  TGI: 2.73 µM
SNB-75 CNS
  GI50: 0.261 µM
  TGI: 1.41 µM
UACC-62 melanoma
  GI50: 0.632 µM
  TGI: 2.09 µM
SNB-19 CNS
  GI50: 1.16 µM
  TGI: 2.37 µM
IGROV1 ovarian
  GI50: 0.122 µM
  TGI: 0.288 µM
KM12 colon
  GI50: 0.787 µM
  TGI: 2.06 µM
TK-10 renal
  GI50: 0.646 µM
  TGI: 1.79 µM
CAKI-1 renal
  GI50: 0.535 µM
  TGI: 1.65 µM
OVCAR-3 ovarian
  GI50: 0.252 µM
  TGI: 0.786 µM
UACC-257 melanoma
  GI50: 1.57 µM
  TGI: 3.1 µM
RXF 393 renal
  GI50: 0.24 µM
  TGI: 0.624 µM
SK-OV-3 ovarian
  GI50: 1.6 µM
  TGI: 3.26 µM
SF-268 CNS
  GI50: 0.86 µM
  TGI: 2.08 µM
A549 NSCLC
  GI50: 0.724 µM
  TGI: 2.01 µM
LOX IMVI melanoma
  GI50: 1.02 µM
  TGI: 2.19 µM
T-47D breast
  GI50: 0.0887 µM
  TGI: 0.598 µM
OVCAR-4 ovarian
  GI50: 0.815 µM
  TGI: 2.21 µM
MDA-MB-435
  GI50: 0.343 µM
  TGI: 1.31 µM
EKVX NSCLC
  GI50: 1.1 µM
  TGI: 2.3 µM
CCRF-CEM leukemia
  GI50: 0.237 µM
SK-MEL-2 melanoma
  GI50: 0.0467 µM
  TGI: 0.521 µM
SW-620 colon
  GI50: 0.513 µM
  TGI: 1.86 µM
UO-31 renal
  GI50: 0.169 µM
  TGI: 0.593 µM
U251 CNS
  GI50: 0.91 µM
  TGI: 2.11 µM
K-562 leukemia
  TGI: > 100 µM

Source: PubChem BioAssay (NCI)
